Patent US12012403B2, “Aryl sulfonyl compounds as CCR6 inhibitors” (CHEMOCENTRYX, INC., priority 2021, dated 2024)

What follows are molecules tested against T1, human CCR6 (Homo sapiens, UniProt P51684) (assay: Migration (chemotaxis) assay, hCCR6-transfected Ba/F3 cells toward CCL20). Conditions: hCCR6-transfected Ba/F3 cells in human serum; recombinant human CCL20 10 nM; 37° C. 45 minutes; read-out: Potency (IC50 value in the migration assay).
T1 construct: expressed in transfected cells; host or cells: Ba/F3 cells (murine pro-B line), hCCR6-transfected, CMV promoter, sodium butyrate induction
T1 sequence (P51684 1-374): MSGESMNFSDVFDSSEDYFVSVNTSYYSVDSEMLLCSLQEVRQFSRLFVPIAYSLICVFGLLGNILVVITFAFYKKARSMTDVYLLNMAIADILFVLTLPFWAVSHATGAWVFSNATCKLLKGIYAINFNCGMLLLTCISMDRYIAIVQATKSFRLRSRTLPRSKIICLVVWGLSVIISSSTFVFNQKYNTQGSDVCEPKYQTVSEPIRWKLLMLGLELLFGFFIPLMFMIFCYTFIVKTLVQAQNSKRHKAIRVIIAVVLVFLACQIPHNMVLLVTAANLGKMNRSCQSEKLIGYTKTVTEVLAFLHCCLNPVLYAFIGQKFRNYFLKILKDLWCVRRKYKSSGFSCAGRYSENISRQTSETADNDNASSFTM
Type: cell-based
Summary of the method: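 Ba/F3 cells stably transfected with human CCR6 (CMV promoter), pre-induced 24 hr with sodium butyrate, suspended at 4 million/ml in human serum with test compound serially diluted from 10 μM final. Migration through 5-μm polycarbonate membrane toward 10 nM CCL20 (EC50) for 45 min at 37 °C; migrated cells quantified by CyQUANT fluorescence.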

Row | SMILES | IC50 [nM]
1 | CNc1n[nH]c2ncc(-c3ccc(S(=O)(=O)N4CCC(Nc5ccc(C(F)(F)F)cn5)CC4)cc3)cc12 [Example 1.049] | < 5
2 | O=C1NCC2(CCN(c3ccc(S(=O)(=O)N4CCC(Nc5ccc(C(F)(F)F)cn5)CC4)cc3)CC2)N1 [Example 1.150] | 5 to 100
3 | O=C1Nc2ccc(-c3ccc(S(=O)(=O)N4CCC(Nc5ccc(C(F)(F)F)cn5)CC4)cc3)cc2C12CC2 [Example 1.051] | < 5
4 | COc1n[nH]c2ccc(-c3ccc(S(=O)(=O)N4CCC(Nc5ccc(C(F)(F)F)cn5)CC4)cc3)cc12 [Example 1.077] | 5 to 100
5 | NC(=O)N1CCCN(c2ccc(S(=O)(=O)N3CCC(Nc4ccc(C(F)(F)F)cn4)CC3)cc2)CC1 [Example 1.203] | 5 to 100
6 | N#Cc1cn(CC(N)=O)c2ncc(-c3ccc(S(=O)(=O)N4CCC(Nc5ccc(C(F)(F)F)cn5)CC4)cc3)cc12 [Example 1.039] | < 5
7 | CN1CCC2(CC1)C(=O)Nc1ccc(-c3ccc(S(=O)(=O)N4CCC(Nc5ccc(C(F)(F)F)cn5)CC4)cc3)cc12 [Example 1.006] | 100 to 10000
8 | N#Cc1c[nH]c2ncc(-c3ccc(S(=O)(=O)N4CCC(Nc5ccc(C(F)(F)F)cn5)CC4)cc3)cc12 [Example 1.088] | < 5
9 | N#Cc1n[nH]c2c1CN(c1ccc(S(=O)(=O)N3CCC(Nc4ccc(C(F)(F)F)cn4)CC3)cc1)CC2 [Example 1.207] | 100 to 10000
10 | CC1(O)CCN(c2ccc(S(=O)(=O)N3CCC(Nc4ccc(C(F)(F)F)cn4)CC3)cc2)CC1 [Example 1.182] | 5 to 100
11 | CN(C)CCn1cc(C#N)c2cc(-c3ccc(S(=O)(=O)N4CCC(Nc5ccc(C(F)(F)F)cn5)CC4)cc3)cnc21 [Example 1.001] | 5 to 100
12 | NC(=O)C1CCN(c2ccc(S(=O)(=O)N3CCC(Nc4ccc(C(F)(F)F)cn4)CC3)cc2)C1 (stereo not shown) [Example 1.195] | 100 to 10000
13 | Nc1nc2cc(-c3ccc(S(=O)(=O)N4CCC(Nc5ccc(C(F)(F)F)cn5)CC4)cc3)ccc2[nH]1 [Example 1.107] | 5 to 100
14 | O=c1[nH]c2ccc(-c3ccc(S(=O)(=O)N4CCC(Nc5ccc(C(F)(F)F)cn5)CC4)cc3)cc2[nH]1 [Example 1.115] | 5 to 100
15 | CC(C)(C)OC(=O)NCC1CN(c2ccc(S(=O)(=O)N3CCC(Nc4ccc(C(F)(F)F)cn4)CC3)cc2)C1 [Example 1.143] | 5 to 100
16 | NC(=O)NCCC1CCN(c2ccc(S(=O)(=O)N3CCC(Nc4ccc(C(F)(F)F)cn4)CC3)cc2)CC1 [Example 1.125] | 5 to 100
17 | CC(=O)NC1CCN(c2ccc(S(=O)(=O)N3CCC(Nc4ccc(C(F)(F)F)cn4)CC3)cc2)CC1 [Example 1.210] | 5 to 100
18 | O=C1NCCC12CCN(c1ccc(S(=O)(=O)N3CCC(Nc4ccc(C(F)(F)F)cn4)CC3)cc1)CC2 [Example 1.172] | < 5
19 | NC(=O)c1cc2cc(-c3ccc(S(=O)(=O)N4CCC(Nc5ccc(C(F)(F)F)cn5)CC4)cc3)ccc2[nH]1 [Example 1.098] | 5 to 100
20 | O=S(=O)(c1ccc(N2CC[C@H](O)C2)cc1)N1CCC(Nc2ccc(C(F)(F)F)cn2)CC1 [Example 1.197] | 100 to 10000
21 | NS(=O)(=O)C1CCN(c2ccc(S(=O)(=O)N3CCC(Nc4ccc(C(F)(F)F)cn4)CC3)cc2)CC1 [Example 1.189] | 100 to 10000

Row | SMILES | IC50 [nM]
22 | NC(=O)c1n[nH]c2ccc(-c3ccc(S(=O)(=O)N4CCC(Nc5ccc(C(F)(F)F)cn5)CC4)cc3)cc12 [Example 1.095] | < 5
23 | NC(=O)CN1CCN(c2ccc(S(=O)(=O)N3CCC(Nc4ccc(C(F)(F)F)cn4)CC3)cc2)CC1 [Example 1.122] | 5 to 100
24 | O=C1Cc2cc(-c3ccc(S(=O)(=O)N4CCC(Nc5ccc(C(F)(F)F)cn5)CC4)cc3)cnc2N1 [Example 1.073] | < 5
25 | O=S(=O)(c1ccc(N2CCC3(CC2)CC(O)C3)cc1)N1CCC(Nc2ccc(C(F)(F)F)cn2)CC1 [Example 1.158] | 5 to 100
26 | O=S(=O)(c1ccc(N2CCc3[nH]ncc3C2)cc1)N1CCC(Nc2ccc(C(F)(F)F)cn2)CC1 [Example 1.214] | 5 to 100
27 | O=C1NC[C@@H]2CCN(c3ccc(S(=O)(=O)N4CCC(Nc5ccc(C(F)(F)F)cn5)CC4)cc3)C[C@H]12 (racemic) [Example 1.169] | 100 to 10000
28 | NC(=O)NC1CC2(C1)CN(c1ccc(S(=O)(=O)N3CCC(Nc4ccc(C(F)(F)F)cn4)CC3)cc1)C2 [Example 1.159] | 100 to 10000
29 | NC(=O)C1CCCN(c2ccc(S(=O)(=O)N3CCC(Nc4ccc(C(F)(F)F)cn4)CC3)cc2)C1 (stereo not shown) [Example 1.230] | 5 to 100
30 | CC(C)(C)OC(=O)N1CCC=C(c2ccc(S(=O)(=O)N3CCC(Nc4ccc(C(F)(F)F)cn4)CC3)cc2)C1 [Example 1.233] | 5 to 100
31 | O=C1CCCCN1c1ccc(S(=O)(=O)N2CCC(Nc3ccc(C(F)(F)F)cn3)CC2)cc1 [Example 1.227] | 100 to 10000
32 | NC(=O)C1CC2(C1)CN(c1ccc(S(=O)(=O)N3CCC(Nc4ccc(C(F)(F)F)cn4)CC3)cc1)C2 [Example 1.121] | 5 to 100
33 | O=C1NCc2ccc(-c3ccc(S(=O)(=O)N4CCC(Nc5ccc(C(F)(F)F)cn5)CC4)cc3)cc21 [Example 1.093] | < 5
34 | O=S(=O)(c1ccc(-c2ccnc3[nH]ccc23)cc1)N1CCC(Nc2ccc(C(F)(F)F)cn2)CC1 [Example 1.083] | 5 to 100
35 | CC(=O)N1CCCC(c2ccc(S(=O)(=O)N3CCC(Nc4ccc(C(F)(F)F)cn4)CC3)cc2)C1 (stereo not shown) [Example 1.183] | 5 to 100
36 | O=S(=O)(c1ccc(-c2cnc3[nH]ccc3c2)cc1)N1CCC(Nc2ccc(C(F)(F)F)cn2)CC1 [Example 1.089] | < 5
37 | O=C1Cc2cc(-c3ccc(S(=O)(=O)N4CCC(Nc5ccc(C(F)(F)F)cn5)CC4)cc3)cc(C(=O)O)c2N1 [Example 1.008] | 100 to 10000
38 | NC(=O)N[C@H]1CCN(c2ccc(S(=O)(=O)N3CCC(Nc4ccc(C(F)(F)F)cn4)CC3)cc2)C1 [Example 1.190] | 100 to 10000
39 | O=C1Cc2ccc(-c3ccc(S(=O)(=O)N4CCC(Nc5ccc(C(F)(F)F)cn5)CC4)cc3)cc2CN1 [Example 1.007] | 5 to 100
40 | NC(=O)N1CC(C2CN(c3ccc(S(=O)(=O)N4CCC(Nc5ccc(C(F)(F)F)cn5)CC4)cc3)C2)C1 [Example 1.145] | 5 to 100
41 | O=C1CCc2ccc(-c3ccc(S(=O)(=O)N4CCC(Nc5ccc(C(F)(F)F)cn5)CC4)cc3)cc2N1 [Example 1.047] | 5 to 100
42 | O=C1NCCC12CCN(c1ccc(S(=O)(=O)N3CCC(Nc4ccc(C(F)(F)F)cn4)CC3)cc1)CC2 [Example 1.153] | 5 to 100

Row | SMILES | IC50 [nM]
43 | O=C1CNC(=O)C2(CCN(c3ccc(S(=O)(=O)N4CCC(Nc5ccc(C(F)(F)F)cn5)CC4)cc3)CC2)N1 [Example 1.139] | 100 to 10000
44 | CC(C)(C)OC(=O)NCCN1C(=O)C2(CC2)c2cc(-c3ccc(S(=O)(=O)N4CCC(Nc5ccc(C(F)(F)F)cn5)CC4)cc3)cnc21 [Example 1.004] | 5 to 100
45 | CC(=O)N[C@H]1CCN(c2ccc(S(=O)(=O)N3CCC(Nc4ccc(C(F)(F)F)cn4)CC3)cc2)C1 [Example 1.192] | 100 to 10000
46 | O=C1COC2(CCN(c3ccc(S(=O)(=O)N4CCC(Nc5ccc(C(F)(F)F)cn5)CC4)cc3)CC2)CN1 [Example 1.147] | 5 to 100
47 | O=S(=O)(c1ccc(C2=CCOCC2)cc1)N1CCC(Nc2ccc(C(F)(F)F)cn2)CC1 [Example 1.236] | 5 to 100
48 | N#Cc1n[nH]c2ccc(-c3ccc(S(=O)(=O)N4CCC(Nc5ccc(C(F)(F)F)cn5)CC4)cc3)cc12 [Example 1.055] | < 5
49 | NC(=O)C1CN(c2ccc(S(=O)(=O)N3CCC(Nc4ccc(C(F)(F)F)cn4)CC3)cc2)C1 [Example 1.196] | 100 to 10000
50 | Nc1nc2cc(-c3ccc(S(=O)(=O)N4CCC(Nc5ccc(C(F)(F)F)cn5)CC4)cc3)ccc2o1 [Example 1.118] | < 5
51 | N#Cc1c[nH]c2cc(-c3ccc(S(=O)(=O)N4CCC(Nc5ccc(C(F)(F)F)cn5)CC4)cc3)ccc12 [Example 1.101] | 5 to 100
52 | O=S(=O)(c1ccc(N2CCC(Cc3ncc[nH]3)CC2)cc1)N1CCC(Nc2ccc(C(F)(F)F)cn2)CC1 [Example 1.131] | 100 to 10000
53 | O=c1[nH]c2cc(-c3ccc(S(=O)(=O)N4CCC(Nc5ccc(C(F)(F)F)cn5)CC4)cc3)cnc2[nH]1 [Example 1.067] | < 5
54 | O=c1[nH]c2ccc(-c3ccc(S(=O)(=O)N4CCC(Nc5ccc(C(F)(F)F)cn5)CC4)cc3)cc2o1 [Example 1.097] | < 5
55 | CN(C)C(=O)CC1CCN(c2ccc(S(=O)(=O)N3CCC(Nc4ccc(C(F)(F)F)cn4)CC3)cc2)CC1 [Example 1.134] | 100 to 10000
56 | O=C1Cc2ncc(-c3ccc(S(=O)(=O)N4CCC(Nc5ccc(C(F)(F)F)cn5)CC4)cc3)cc2N1 [Example 1.022] | 5 to 100
57 | Cn1nc(N)c2cc(-c3ccc(S(=O)(=O)N4CCC(Nc5ccc(C(F)(F)F)cn5)CC4)cc3)ccc21 [Example 1.046] | < 5
58 | CNC(=O)CC1CCN(c2ccc(S(=O)(=O)N3CCC(Nc4ccc(C(F)(F)F)cn4)CC3)cc2)CC1 [Example 1.135] | 5 to 100
59 | O=c1[nH]c2cc(-c3ccc(S(=O)(=O)N4CCC(Nc5ccc(C(F)(F)F)cn5)CC4)cc3)ccc2o1 [Example 1.082] | 5 to 100
60 | CS(=O)(=O)NCCC1CCN(c2ccc(S(=O)(=O)N3CCC(Nc4ccc(C(F)(F)F)cn4)CC3)cc2)CC1 [Example 1.127] | 5 to 100
61 | CC(=O)N1Cc2ccc(-c3ccc(S(=O)(=O)N4CCC(Nc5ccc(C(F)(F)F)cn5)CC4)cc3)cc2C1 [Example 1.053] | < 5
